Data: ChEMBL document CHEMBL5325471, “Identification of new modulator of DNA repairing pathways based on natural product (±)-peharmaline A” (Bioorg Med Chem, 2023)

Key:
MCF7 = assay: Antiproliferative activity against human MCF7 cells assessed as cell growth inhibition incubated for 44 hrs by MTT assay; type: functional, cell-based; conditions: MCF7, 44 h
PC-3 [1] = assay: Antiproliferative activity against human PC-3 cells assessed as cell growth inhibition incubated for 44 hrs by MTT assay; type: functional, cell-based; conditions: PC-3, 44 h
[2] = Cytotoxicity against human fR2 cells assessed as cell growth inhibition incubated for 44 hrs by MTT assay; type: toxicity, cell-based
HCT-116 = assay: Antiproliferative activity against human HCT-116 cells assessed as cell growth inhibition incubated for 44 hrs by MTT assay; type: functional, cell-based; conditions: HCT-116, 44 h
A549 = assay: Antiproliferative activity against human A549 cells assessed as cell growth inhibition incubated for 44 hrs by MTT assay; type: functional, cell-based; conditions: A549, 44 h
HL-60 = assay: Cytotoxicity against human HL-60 cells; type: functional, cell-based
SGC-7901 = assay: Cytotoxicity against human SGC-7901 cells; type: functional, cell-based
PC-3 [3] = assay: Cytotoxicity against human PC-3 cells; type: functional, cell-based

Row | IC50 (MCF7) | IC50 (PC-3 [1]) | IC50 (HCT-116) | IC50 (A549) | SMILES | IC50 at 44 h [2] | IC50 (HL-60) | IC50 (SGC-7901) | IC50 (PC-3 [3])
1 | > 100 µM | > 100 µM | 25.6 µM | 23.7 µM | COC(=O)[C@]1([C@H]2CCN(C(=O)C3CCC3)C2=O)NCCc2c1[nH]c1ccccc21 (racemic) | > 100 µM | – | – | –
2 | 8.36 µM | 7.02 µM | 5.76 µM | 5.02 µM | COC(=O)[C@]1([C@H]2CCN(C(=O)c3ccccc3I)C2=O)NCCc2c1[nH]c1ccccc21 (racemic) | > 100 µM | – | – | –
3 | > 100 µM | 35 µM | > 100 µM | > 100 µM | COC(=O)[C@]1([C@H]2CCCNC2=O)NCCc2c1[nH]c1ccccc21 | > 100 µM | – | – | –
4 | > 100 µM | > 100 µM | > 100 µM | 16.3 µM | COC(=O)[C@]1([C@H]2CCN(C(=O)c3ccc(C)cc3[N+](=O)[O-])C2=O)NCCc2c1[nH]c1ccccc21 (racemic) | > 100 µM | – | – | –
5 | 15.9 µM | 94.4 µM | 14 µM | 17.9 µM | COC(=O)[C@]1([C@H]2CCN(C(=O)c3cccs3)C2=O)NCCc2c1[nH]c1ccccc21 (racemic) | 39.2 µM | – | – | –
6 | 8.36 µM | 11.1 µM | 8.79 µM | 10.8 µM | COC(=O)[C@]1([C@H]2CCN(C(=O)c3ccc(Cl)cc3Cl)C2=O)NCCc2c1[nH]c1ccccc21 (racemic) | > 100 µM | – | – | –
7 | 4.51 µM | 13.5 µM | 3 µM | 0.845 µM | COC(=O)[C@]1([C@H]2CCN(C(=O)c3ccc(C(F)(F)F)cc3Cl)C2=O)NCCc2c1[nH]c1ccccc21 (racemic) | 39.2 µM | – | – | –
8 | 6.22 µM | 12.2 µM | 15.4 µM | 5.24 µM | COC(=O)[C@]1([C@H]2CCn3c2nc2ccccc2c3=O)NCCc2c1[nH]c1cc(OC)ccc21 (racemic) | 17.9 µM | 9.2 µM | 25.4 µM | 21.6 µM
9 | > 100 µM | > 100 µM | > 100 µM | > 100 µM | CCOC(=O)[C@]1([C@H]2CCNC2=O)NCCc2c1[nH]c1ccccc21 (racemic) | > 100 µM | – | – | –
10 | 93.3 µM | > 100 µM | > 100 µM | > 100 µM | COC(=O)[C@]1([C@H]2CCCCNC2=O)NCCc2c1[nH]c1ccccc21 | > 100 µM | – | – | –
11 | 7.43 µM | 36.5 µM | 15.1 µM | 35.8 µM | COC(=O)[C@]1([C@H]2CCCCN(C(=O)c3ccccc3[N+](=O)[O-])C2=O)NCCc2c1[nH]c1ccccc21 | 30.2 µM | – | – | –
12 | > 100 µM | > 100 µM | > 100 µM | 19.4 µM | COC(=O)[C@@H]1Cc2c([nH]c3ccccc23)[C@@](C(=O)OC)([C@H]2CCCN(C(=O)c3ccccc3[N+](=O)[O-])C2=O)N1 | > 100 µM | – | – | –
13 | 51.3 µM | > 100 µM | > 100 µM | > 100 µM | COC(=O)[C@]1([C@H]2CCN(C(=O)c3ccccc3[N+](=O)[O-])C2=O)NCCc2c1[nH]c1ccccc21 | > 100 µM | – | – | –
14 | 16.1 µM | 31 µM | 6.19 µM | 12.7 µM | COC(=O)[C@]1([C@H]2CCN(C(=O)c3ccccc3[N+](=O)[O-])C2=O)NCCc2c1[nH]c1cc(OC)ccc21 | 17.8 µM | – | – | –
15 | 8.12 µM | 6.23 µM | 3.92 µM | 3.37 µM | COC(=O)[C@]1([C@H]2CCN(C(=O)c3ccccc3Br)C2=O)NCCc2c1[nH]c1ccccc21 (racemic) | 89.8 µM | – | – | –
16 | 3.28 µM | 4.95 µM | 4.15 µM | 6.88 µM | COC(=O)[C@]1([C@H]2CCCn3c2nc2ccccc2c3=O)NCCc2c1[nH]c1ccccc21 | 93.6 µM | – | – | –
17 | > 100 µM | 59.7 µM | 11.2 µM | 16.3 µM | COC(=O)[C@]1([C@H]2CCN(C(=O)c3ccc(C)cc3C)C2=O)NCCc2c1[nH]c1ccccc21 (racemic) | > 100 µM | – | – | –

Row | IC50 (MCF7) | IC50 (PC-3 [1]) | IC50 (HCT-116) | IC50 (A549) | SMILES | IC50 at 44 h [2] | IC50 (HL-60) | IC50 (SGC-7901) | IC50 (PC-3 [3])
18 | 47.7 µM | 43.7 µM | 5.34 µM | 5.21 µM | COC(=O)[C@]1([C@H]2CCCN(C(=O)c3ccccc3Cl)C2=O)NCCc2c1[nH]c1ccccc21 (racemic) | > 100 µM | – | – | –
19 | 28.1 µM | > 100 µM | > 100 µM | 10.7 µM | CCOC(=O)[C@]1([C@H]2CCN(C(=O)c3ccccc3[N+](=O)[O-])C2=O)NCCc2c1[nH]c1ccccc21 (racemic) | > 100 µM | – | – | –
20 | 6.95 µM | 6.47 µM | 5.35 µM | 7.91 µM | COC(=O)[C@]1([C@H]2CCCCn3c2nc2ccccc2c3=O)NCCc2c1[nH]c1ccccc21 | 35.6 µM | – | – | –
21 | > 100 µM | 91.7 µM | 7.48 µM | > 100 µM | COC(=O)[C@]1([C@@H]2CCNC2=O)NCCc2c1[nH]c1cc(OC)ccc21 | > 100 µM | – | – | –
22 | > 100 µM | > 100 µM | > 100 µM | > 100 µM | COC(=O)[C@]1([C@H]2CCN(C(=O)c3ccc(Cl)cc3[N+](=O)[O-])C2=O)NCCc2c1[nH]c1ccccc21 (racemic) | > 100 µM | – | – | –
23 | > 100 µM | > 100 µM | 27.4 µM | 20.4 µM | COC(=O)[C@@H]1Cc2c([nH]c3ccccc23)[C@@](C(=O)OC)([C@H]2CCNC2=O)N1 | > 100 µM | – | – | –
24 | > 5.04 µM | 17 µM | 10.1 µM | 7.8 µM | COC(=O)[C@]1([C@H]2CCN(C(=O)c3ccc(F)cc3)C2=O)NCCc2c1[nH]c1ccccc21 (racemic) | 35.8 µM | – | – | –
25 | 6.96 µM | 5.96 µM | 8.65 µM | 6.45 µM | COC(=O)[C@]1([C@H]2CCN(C(=O)c3ccccc3F)C2=O)NCCc2c1[nH]c1ccccc21 (racemic) | > 100 µM | – | – | –
26 | 1.62 µM | 2.39 µM | 4.12 µM | 1.12 µM | COC(=O)[C@]1([C@H]2CCN(C(=O)c3ccccc3Cl)C2=O)NCCc2c1[nH]c1ccccc21 (racemic) | 20 µM | – | – | –
27 | > 100 µM | 75.1 µM | 25.6 µM | 39.8 µM | COC(=O)[C@]1([C@H]2CCNC2=O)NCCc2c1[nH]c1ccccc21 | > 100 µM | – | – | –
28 | 51.2 µM | > 100 µM | 42.2 µM | 39.1 µM | COC(=O)[C@]1([C@H]2CCCN(C(=O)c3ccccc3[N+](=O)[O-])C2=O)NCCc2c1[nH]c1ccccc21 | > 100 µM | – | – | –
29 | > 100 µM | > 100 µM | 16.4 µM | 17.3 µM | COC(=O)[C@]1([C@H]2CCN(C(=O)c3ccccc3)C2=O)NCCc2c1[nH]c1ccccc21 (racemic) | > 100 µM | – | – | –
30 | 6.2 µM | 13 µM | 6.26 µM | 10.4 µM | COC(=O)[C@@H]1Cc2c([nH]c3ccccc23)[C@@](C(=O)OC)([C@H]2CCCn3c2nc2ccccc2c3=O)N1 | 33.2 µM | – | – | –
31 | > 100 µM | > 100 µM | 19.7 µM | 20.4 µM | COC(=O)[C@]1([C@H]2CCN(C(=O)c3ccc(Cl)cc3)C2=O)NCCc2c1[nH]c1ccccc21 (racemic) | > 100 µM | – | – | –
32 | 81.6 µM | > 100 µM | > 100 µM | 16.6 µM | COC(=O)[C@]1([C@H]2CCNC2=O)NCCc2c1[nH]c1cc(OC)ccc21 | > 100 µM | – | – | –
33 | 20.4 µM | 22.8 µM | 55.8 µM | 72.8 µM | CCOC(=O)[C@]1([C@H]2CCN(C(=O)c3ccccc3Cl)C2=O)NCCc2c1[nH]c1ccccc21 (racemic) | 84 µM | – | – | –
